In brackets after ≈: the same amount, converted by molar mass. Read-outs that look alike come from different tables or passages of the source. Marks after values point to notes of the source that are not given here.
Experiments:
[1] = tested on: Aspergillus niger isolate; assay: Minimum fungicidal concentration (MFC); type: cell-based; conditions: for MFC: Aspergillus niger, read-out: Minimum fungicidal concentration
[2] = tested on: Penicillium chrysogenum Thom ATCC 48908; assay: Well diffusion assay (zone of inhibition); type: cell-based; conditions: for zone of inhibition at 175000 µM / zone of inhibition at 350000 µM: Penicillium chrysogenum, read-out: Zone of inhibition, Average ± standard deviation
A. niger = assay: Fungicidal effect in mold suspension, one hour treatment, DRBC plating; type: cell-based, Aspergillus niger; conditions: for A. niger count, Average ± standard deviation: n = 3
Procedure: Preparation of mold suspension. Aspergillus niger ATCC 24126 and Penicillium chrysogenum Thom ATCC 48908 were purchased from American Type Culture Collection (ATCC). The strains were stored at −80° C. in glycerol. Prior to test, both strains were revived by streaking a loopful of culture onto DRBC (i.e., dichloran rose-bengal chloramphenicol (CM1148B; Thermo Scientific Oxoid) prepared as per recommended by supplier) with 72 hours incubation at 25° C. The three-days old mold culture lawn was diluted in phosphate buffer (0.30 mM; pH 7.2) to obtain a mold suspension of ca. 10^6 CFU/mL. The colony count of the suspension was determined through conventional plating method using DRBC agar at the appropriate dilution. Briefly, the mold suspension was diluted to the appropriate dilution with phosphate buffer (0.30 mM; pH 7.2). Upon dilution, 100 μL of the diluted mold suspension was spread onto the DRBC agar. After which, the plates were incubated at 25° C. for five days prior to counting. Tests were carried out in triplicates.
Fungicidal effect of PPA against A. niger. The fungicidal effect of PPA in solution was evaluated in comparison to propionic acid and hydrogen peroxide. To serve as a positive control and comparison point, propionic acid, was tested at two concentrations, 1500 and 3000 ppm, equivalent to 0.02 and 0.04 mol/L. On the other hand, PPA was tested at a single concentration of 0.02 mol/L. To evaluate the effect of hydrogen peroxide, hydrogen peroxide was also included as one of the treatment groups. Hydrogen peroxide was tested at 2.43% w/w. The concentration of hydrogen peroxide to be tested is calculated based on the equivalent amount present in 0.02 mol/L of PPA, which is the sum of hydrogen peroxide already present and from the potential breakdown of PPA. A 900 μL of mold suspension (of c.a. 10^6 CFU/mL prepared in 0.9% sodium chloride) was treated with 100 μL of the test solutions (prepared in sterile water) for one hour.
After one hour, the treatment solutions were neutralized with 2 mL of sodium thiosulphate and 7 mL of phosphate buffer (0.3 mM; pH 7.2). The solution was at 10-1 dilution. Subsequently the solution was further diluted up to 10-5 with phosphate buffer. The mold count for each treatment was determined through conventional plating method using DRBC agar. Test was conducted in triplicates. Controls were prepared with i) 100 μL of sterile water instead of test solutions and ii) 900 μL of 0.9% sodium chlorine instead of mold suspension and 100 μL of sterile water instead of test solutions.

[3] = tested on: Aspergillus niger ATCC 24126; assay: Well diffusion assay (zone of inhibition); type: cell-based; conditions: for zone of inhibition at 175000 µM / zone of inhibition at 350000 µM: Aspergillus niger, read-out: Zone of inhibition, Average ± standard deviation
[4] = tested on: mold in naturally contaminated feed for laying hens; assay: Mold counts in naturally contaminated laying hen feed, 7 days; conditions: 2500 ppm peroxyacid on feed, 7 days at 25° C.
Procedure: PPA acid and peracetic acid stock solutions were provided at a concentration of 20% peroxyacid. The treatment solutions were diluted to the correct concentration with ASTM Type II water before application of the treatments. Feed for laying hens that is naturally contaminated with mold was used for the study. The initial mold count of the feed was log 4.66 cfu/g. For each treatment, 100 g of feed was treated with 1.5 ml of the diluted PPA, peracetic acid or a 1:1 mix of PPA acid and peracetic acid, resulting in a final concentration of 2500 ppm of peroxyacid on the feed. The negative control treatment was treated with 1.5 ml of water. The feed was kept for 7 days at 25° C. before analysis.
Triplicate 5 g feed samples from each treatment were taken and tested for molds. Each sample was mixed vigorously with 0.1% peptone water 30 s and then a 0.1 ml aliquot of the sample was plated on DRBC agar and incubated upright in a 25° C. incubator for 5 days before counting.

[5] = tested on: Aspergillus spp., Penicillium spp, and Fusarium spp.; conditions: Higgins et al. 1999; cited from earlier work
Aspergillus niger = conditions: cited from earlier work
Penicillium vericulosum = conditions: cited from earlier work
[6] = 48 hours at 25° C., then DRBC plate 5 days at 25° C.
[7] = ATCC48908, 0.175 mol/L active, 72 hours, n = 3
[8] = ATCC48908, 0.350 mol/L active, 72 hours, n = 3
[9] = 0.175 mol/L active, 72 hours, n = 3
[10] = 0.350 mol/L active, 72 hours, n = 3

SMILES: CC(=O)O [Acetic acid]
- MFC [1, 6]: > 5000 µg/mL
- zone of inhibition at 175000 µM [2, 7]: 8.97 ± 0.55 mm
- zone of inhibition at 350000 µM [2, 8]: 10.9 ± 0.75 mm

SMILES: CCCC(=O)O [Butyric acid]
- MFC [1, 6]: 5000 µg/mL (≈ 56.7 mM)

SMILES: OO [Hydrogen peroxide]
- reduction of A. niger count (A. niger; 2.43%): approximately 1.2 log CFU/mL
- A. niger count, Average ± standard deviation (A. niger; 2.43% v/v): 4.75 ± 0.13^b log CFU/mL
- Zone of inhibition, Average ± standard deviation ([3]; 0.3% v/v, 72 hours, n = 3): 8.00 ± 0.00^b mm
- Zone of inhibition, Average ± standard deviation ([3]; 0.6% v/v, 72 hours, n = 3): 9.42 ± 0.16^bc mm
- Zone of inhibition, Average ± standard deviation ([3]; 1.0% v/v, 72 hours, n = 3): 10.93 ± 0.31^bc mm
- Zone of inhibition, Average ± standard deviation ([2]; 0.3% v/v, 72 hours, n = 3): 17.10 ± 0.05^cd mm
- Zone of inhibition, Average ± standard deviation ([2]; 0.6% v/v, 72 hours, n = 3): 19.32 ± 0.76^de mm
- Zone of inhibition, Average ± standard deviation ([2]; 1.0% v/v, 72 hours, n = 3): 22.08 ± 0.34d^ef mm

SMILES: CCC(=O)OO [PPA, perpropionic acid]
- reduction of A. niger count (A. niger; 0.02 mol/L): at least 4 log CFU/mL
- Minimum fungicidal concentration [1, 6]: 500 ppm
- times more effective in killing mold than propionic acid ([1]; from the MFC study): at least 5 times
- Zone of inhibition, Average ± standard deviation [3, 9]: 16.42 ± 2.19^d mm
- Zone of inhibition, Average ± standard deviation [3, 10]: 25.67 ± 2.05^e mm
- mold counts seven days after treatment versus control [4]: not significantly different from the control treatment
- Zone of inhibition, Average ± standard deviation [2, 9]: 23.80 ± 0.58^ef mm
- Zone of inhibition, Average ± standard deviation [2, 10]: 35.45 ± 4.55^g mm

SMILES: CC(=O)OO [Peracetic acid]
- MFC [1]: 1000 µg/mL (≈ 13.1 mM)
- zone of inhibition at 175000 µM ([3]; ATCC24126, 72 h): 16 ± 0.8 mm
- zone of inhibition at 350000 µM ([3]; ATCC24126, 72 h): 24.7 ± 2.04 mm
- mold counts seven days after treatment versus control [4]: not significantly different from the control treatment
- zone of inhibition at 175000 µM ([2]; ATCC48908, 72 h): 24.1 ± 0.33 mm
- zone of inhibition at 350000 µM ([2]; ATCC48908, 72 h): 36 ± 3.8 mm

SMILES: CCC(=O)O [Propionic acid]
- concentration for complete inhibition [5]: lower than 0.35%
- reduction of A. niger count (A. niger; 0.02 mol/L): no count reduction
- A. niger count, Average ± standard deviation (A. niger; 0.02 mol/L): 6.01 ± 0.08^c log CFU/mL
- fungicidal effect (A. niger; 0.04 mol/L (3000 ppm)): no fungicidal effect
- A. niger count, Average ± standard deviation (A. niger; 0.04 mol/L): 6.08 ± 0.11^c log CFU/mL
- concentration capable of inhibiting (Aspergillus niger): 1000-2000 ppm
- Minimum fungicidal concentration [1, 6]: >5000 ppm
- zone of inhibition at 175000 µM ([3]; ATCC24126, 0.175 mol/L active, 72 hours, n = 3): 9.42 ± 0.66 mm
- zone of inhibition at 350000 µM ([3]; ATCC24126, 0.350 mol/L active, 72 hours, n = 3): 12.12 ± 0.03 mm
- concentration capable of inhibiting (Penicillium vericulosum): 1000-2000 ppm
- zone of inhibition at 175000 µM [2, 7]: 9.15 ± 0.45 mm
- zone of inhibition at 350000 µM [2, 8]: 12.1 ± 0.43 mm

Source: patent US20260157369A1, “COMPOSITIONS CONTAINING PEROXYACID TO INHIBIT GROWTH OF SPORE-PRODUCING ORGANISMS IN ANIMAL FEED AND RELATED METHODS” (KEMIN INDUSTRIES, INC., priority 2024, published 2026)
